The subject of the experiment is P388 leukemia ip, CD2F1 mice, survival T/C. In words: NCI In Vivo Anticancer Drug Screen. Data for tumor model P388 Leukemia (intraperitoneal) in CD2F1 (CDF1) mice. The conditions noted are these: endpoint: median survival time, higher = longer survival. The method, boiled down:
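Mice carrying the transplanted tumor received test compound or vehicle. Survival was recorded in each group, and the value is the treated-group measurement divided by that of the vehicle-treated control group.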

Setting [1] is: dose: 100.0 mg/kg/injection, schedule: Q04DX003 (ip), vehicle: saline with Tween-80.
Setting [2] is: dose: 60.0 mg/kg/injection, schedule: Q01DX005 (ip), vehicle: saline with Tween-80.
The mark [3] stands for this setting: dose: 120.0 mg/kg/injection, schedule: Q01DX005 (ip), vehicle: saline with Tween-80.
[4] abbreviates: dose: 240.0 mg/kg/injection, schedule: Q01DX005 (ip), vehicle: saline with Tween-80.
Setting [5] is: dose: 50.0 mg/kg/injection, schedule: Q01DX009 (ip), vehicle: Klucel (hydroxypropylcellulose) (HPC).
Setting [6] is: dose: 100.0 mg/kg/injection, schedule: Q01DX009 (ip), vehicle: Klucel (hydroxypropylcellulose) (HPC).
Where [7] appears, read: dose: 200.0 mg/kg/injection, schedule: Q01DX009 (ip), vehicle: Klucel (hydroxypropylcellulose) (HPC).
[8] abbreviates: dose: 50.0 mg/kg/injection, schedule: Q01DX009 (ip), vehicle: saline with Tween-80.
[9] abbreviates: dose: 100.0 mg/kg/injection, schedule: Q01DX009 (ip), vehicle: saline with Tween-80.

Values joined by “and” are separate entries in the source; they are usually repeats but may differ in a detail not shown here. Equal values may be shown once. Inconclusive results and toxic doses are left out.

On to `CO[C@H]1Nc2c(ccc(C)c2O)C(=O)N2C=C(/C=C/C(N)=O)C[C@@H]12`, for which the T/C was 106 % of control (dose: 0.05 mg/kg/injection, schedule: Q04DX003 (ip), vehicle: DMSO); 122 % of control (dose: 0.05 mg/kg/injection, schedule: Q04DX003 (ip), vehicle: saline); 112 % of control (dose: 0.1 mg/kg/injection, schedule: Q04DX003 (ip), vehicle: DMSO); 152 % of control (dose: 0.13 mg/kg/injection, schedule: Q04DX003 (ip), vehicle: saline + alcohol); 118 % of control (dose: 0.2 mg/kg/injection, schedule: Q04DX003 (ip), vehicle: DMSO); 122 % of control (dose: 0.2 mg/kg/injection, schedule: Q04DX003 (ip), vehicle: saline). For the same compound, the T/C is, setting by setting: (dose: 0.22 mg/kg/injection, schedule: Q04DX003 (ip), vehicle: saline + alcohol) 153 % of control and 161 % of control (2×); (dose: 0.4 mg/kg/injection, schedule: Q04DX003 (ip), vehicle: saline) 155 % of control; (dose: 0.6 mg/kg/injection, schedule: Q04DX003 (ip), vehicle: saline + alcohol) 185 % of control; (dose: 0.8 mg/kg/injection, schedule: Q04DX003 (ip), vehicle: saline) 110 % of control; (dose: 200.0 micrograms/kg/injection, schedule: Q01DX009 (ip), vehicle: saline) 150 % of control; (dose: 200.0 micrograms/kg/injection, schedule: Q04DX003 (ip), vehicle: saline with Tween-80) 165 % of control.
Turning to `CCOC(=C\C=C\C1=[N+](C)c2ccccc2C1(C)C)/C=C/C=C1/N(C)c2ccccc2C1(C)C`, the T/C (dose: 1.56 mg/kg/injection, schedule: Q01DX009 (ip), vehicle: saline with Tween-80) is 117 % of control and the T/C (dose: 3.13 mg/kg/injection, schedule: Q01DX009 (ip), vehicle: saline with Tween-80) is 114 % of control.
As to `O=C1CN(C2CC2N2CC(=O)NC(=O)C2)CC(=O)N1` (stereo not drawn), the T/C is 97 % of control under setting [1]; 100 % of control (dose: 200.0 mg/kg/injection, schedule: Q04DX003 (ip), vehicle: saline with Tween-80); 100 % of control (dose: 400.0 mg/kg/injection, schedule: Q04DX003 (ip), vehicle: saline with Tween-80).
Take `Cn1c2ccccc2c2nnc(-n3nc(-c4ccccc4)cc3N)nc21`: the T/C reads like this: (dose: 100.0 mg/kg/injection, schedule: Q04DX002 (ip), vehicle: saline with Tween-80) 92 % of control; (dose: 200.0 mg/kg/injection, schedule: Q04DX002 (ip), vehicle: saline with Tween-80) 92 % of control; (dose: 400.0 mg/kg/injection, schedule: Q04DX002 (ip), vehicle: saline with Tween-80) 91 % of control.
For the compound `CC(=O)Nc1ccc(S(=O)(=O)c2ccc([N+](=O)[O-])s2)cc1`, the T/C reads like this: (dose: 25.0 mg/kg/injection, schedule: Q04DX003 (ip), vehicle: Klucel (hydroxypropylcellulose) (HPC)) 105 % of control; (dose: 50.0 mg/kg/injection, schedule: Q04DX003 (ip), vehicle: Klucel (hydroxypropylcellulose) (HPC)) 102 % of control.
Consider `O=c1[nH]c2cc(Cl)ccc2nc1/C=C(\O)c1ccc(O)cc1`, for which the T/C was 102 % of control under setting [2], 95 % of control under setting [3] and 95 % of control under setting [4].
For the compound `O=C1NC(=O)N2CC(CI)OC2C1c1ccccc1` (stereo not drawn), the T/C is, setting by setting: under setting [5], 103 % of control; under setting [6], 98 % of control; under setting [7], 100 % of control.
Regarding `CC1=CN(C(=O)c2ccccc2)C(C#N)N(C(=O)c2ccccc2)C1C#N` (stereo not drawn), the T/C was 100 % of control (dose: 60.0 mg/kg/injection, schedule: Q01DX005 (ip), vehicle: Klucel (hydroxypropylcellulose) (HPC)); 103 % of control (dose: 120.0 mg/kg/injection, schedule: Q01DX005 (ip), vehicle: Klucel (hydroxypropylcellulose) (HPC)); 102 % of control (dose: 240.0 mg/kg/injection, schedule: Q01DX005 (ip), vehicle: Klucel (hydroxypropylcellulose) (HPC)).
As for `Cn1c(=O)n(CCn2c(=O)n(C)c3ccccc32)c2ccccc21`, the T/C runs as follows: (dose: 100.0 mg/kg/injection, schedule: Q01DX001 (ip), vehicle: Klucel (hydroxypropylcellulose) (HPC)) 91 % of control; (dose: 200.0 mg/kg/injection, schedule: Q01DX001 (ip), vehicle: Klucel (hydroxypropylcellulose) (HPC)) 92 % of control; (dose: 400.0 mg/kg/injection, schedule: Q01DX001 (ip), vehicle: Klucel (hydroxypropylcellulose) (HPC)) 91 % of control.
In the case of `OCCN1OCCCC1c1ccccc1` (stereo not drawn), the T/C was 94 % of control under setting [8] and 92 % of control under setting [9].
In the case of `COc1ccc(N2C(=O)CCC2=O)cc1`, the T/C was 109 % of control (dose: 100.0 mg/kg/injection, schedule: Q01DX001 (ip), vehicle: saline with Tween-80); 100 % of control (dose: 200.0 mg/kg/injection, schedule: Q01DX001 (ip), vehicle: saline with Tween-80); 95 % of control (dose: 400.0 mg/kg/injection, schedule: Q01DX001 (ip), vehicle: saline with Tween-80).
As to `Cc1cc(NC(=S)SC(C)C)ccc1Br`, the T/C (dose: 50.0 mg/kg/injection, schedule: Q01DX009 (ip), vehicle: suspension in saline) is 100 % of control; the T/C (dose: 100.0 mg/kg/injection, schedule: Q01DX009 (ip), vehicle: suspension in saline) is 101 % of control; the T/C (dose: 200.0 mg/kg/injection, schedule: Q01DX009 (ip), vehicle: suspension in saline) is 100 % of control.
Turning to `Cc1cc(N(CCOS(C)(=O)=O)CCOS(C)(=O)=O)ccc1C=Nc1ccc(-c2nc(Cc3ccccc3)sc2C)cc1`, the T/C (dose: 12.5 mg/kg/injection, schedule: Q01DX009 (ip), vehicle: Klucel (hydroxypropylcellulose) (HPC)) is 101 % of control; the T/C (dose: 12.5 mg/kg/injection, schedule: Q01DX009 (oral), vehicle: Klucel (hydroxypropylcellulose) (HPC)) is 106 % of control and 107 % of control; the T/C (dose: 25.0 mg/kg/injection, schedule: Q01DX009 (oral), vehicle: Klucel (hydroxypropylcellulose) (HPC)) is 100 % of control and 107 % of control; the T/C (dose: 50.0 mg/kg/injection, schedule: Q01DX009 (oral), vehicle: Klucel (hydroxypropylcellulose) (HPC)) is 106 % of control and 117 % of control; the T/C (dose: 100.0 mg/kg/injection, schedule: Q01DX009 (oral), vehicle: Klucel (hydroxypropylcellulose) (HPC)) was 108 % of control; the T/C (dose: 200.0 mg/kg/injection, schedule: Q01DX009 (oral), vehicle: Klucel (hydroxypropylcellulose) (HPC)) is 119 % of control and 124 % of control. For the setting “dose: 400.0 mg/kg/injection, schedule: Q01DX009 (oral), vehicle: Klucel (hydroxypropylcellulose) (HPC)”, the T/C was 106 % of control.
With `Cc1ccc(S(=O)(=O)/N=S(\C)CC(C)Cl)cc1` (stereo not drawn), the T/C is, setting by setting: under setting [5], 100 % of control; under setting [6], 105 % of control; under setting [7], 105 % of control.
As to `CSC(=Nc1ccc(N(C)C)cc1)NC#N`, the T/C is 106 % of control under setting [5], 103 % of control under setting [6] and 92 % of control under setting [7].
Take `C(=Nc1cnc2ccccc2c1)c1ccnc2ccccc12`: the T/C is, setting by setting: (dose: 12.5 mg/kg/injection, schedule: Q01DX009 (ip), vehicle: saline with Tween-80) 98 % of control; (dose: 12.5 mg/kg/injection, schedule: Q04DX003 (ip), vehicle: saline with Tween-80) 107 % of control; (dose: 25.0 mg/kg/injection, schedule: Q01DX009 (ip), vehicle: saline with Tween-80) 98 % of control; (dose: 25.0 mg/kg/injection, schedule: Q04DX003 (ip), vehicle: saline with Tween-80) 96 % of control; under setting [8], 101 % of control; (dose: 50.0 mg/kg/injection, schedule: Q04DX003 (ip), vehicle: saline with Tween-80) 114 % of control. Further, the T/C was 96 % of control under setting [9] and 99 % of control under setting [1].
With `CCOC(=O)C(CC(C)C)NC(=O)c1cnc2ccccc2c1` (stereo not drawn), the T/C is 104 % of control under setting [2], 103 % of control under setting [3] and 99 % of control under setting [4].
In the case of `COc1ccc(CC2C(=O)NC(C)C(=O)N(C)C3Cc4ccc(cc4)Oc4cc(ccc4OC(C)=O)CC(C(=O)NC(C)C(=O)NC(C)C(=O)N2C)N(C)C3=O)cc1` (stereo not drawn), for the setting “dose: 2.0 mg/kg/injection, schedule: Q01DX009 (ip), vehicle: none”, the T/C was 167 % of control.
In the case of `O=C(CF)c1ccc(Cl)cc1`, the T/C under setting [8] was 99 % of control; the T/C under setting [9] was 106 % of control; the T/C (dose: 200.0 mg/kg/injection, schedule: Q01DX009 (ip), vehicle: saline with Tween-80) was 111 % of control.
On to `O=C(O)C(O)C(F)(F)C(F)(F)C(F)(F)C(F)(F)C(O)C(=O)O` (stereo not drawn), for which the T/C runs as follows: (dose: 60.0 mg/kg/injection, schedule: Q01DX005 (ip), vehicle: saline) 93 % of control; (dose: 120.0 mg/kg/injection, schedule: Q01DX005 (ip), vehicle: saline) 93 % of control; (dose: 240.0 mg/kg/injection, schedule: Q01DX005 (ip), vehicle: saline) 86 % of control.

Values taken from PubChem BioAssay AID330 (DTP/NCI, 2004).
